Data on 3 compounds can be found in ChEMBL document CHEMBL5113529, “Design, Synthesis, and Biological Evaluation of Dual-Target COX-2/CYP51 Inhibitors for the Treatment of Fungal Infectious Diseases” (J Med Chem, 2022).

The test system of one data set is Cryptococcus neoformans. As to the kind of experiment: Antifungal activity against Cryptococcus neoformans ZKCC 2209 assessed as fungal growth inhibition measured after 72 hrs in presence of naproxen by double dilution method. The class given is functional.
The subject of data set [1] is Candida albicans. As to the kind of experiment: Antifungal activity against fluconazole- resistant Candida albicans 904 assessed as fungal growth inhibition measured after 72 hrs in presence of naproxen by double dilution method. In kind it is functional.
Data set [2] deals with Candida albicans. As to the kind of experiment: Antifungal actvity against Candida albicans ATCC SC5314 infected in mouse assessed as reduction in infection at 10 ug per 20 g, ip administered on day 2, 4, 6, 8, 10 and 12 and measured on day 14. In kind it is functional, organism-based. As to conditions: time 14.0 day.
The nature of data set [3]: Toxicity in mouse infected with Candida albicans assessed as lung injury at 10 ug per 20 g, ip administered on day 2, 4, 6, 8, 10 and 12 and measured on day 14 by H and E staining based assay. In kind it is organism-based. To be noted: in vivo, 336 h, dose 10 µg, time 14 day.
The species entered for data set [4] is Mus musculus. In words: Antiinflammatory activity against mouse infected with Candida albicans ATCC SC5314 assessed as reduction in COX-2 expression in spleen in presence of naproxen by Western blot analysis. Also noted: scale not given: the % may be the effect or the level left. The class given is functional. (In western blotting, separated proteins are transferred to a membrane and probed.)

Data set [5] concerns Candida albicans. As to the kind of experiment: Antifungal activity against Candida albicans ATCC SC5314 assessed as induction of ROS production by measuring fluorescence intensity incubated for 12 hrs by KGT010-1 staining based fluorescence microscopy. The class given is functional, organism-based.
Data set [6] in a line: Toxicity in mouse infected with Candida albicans assessed as ALT level in plasma at 10 ug per 20 g, ip administered on day 2, 4, 6, 8, 10 and 12 and measured on day 14 in presence of naproxen (reference value: 43.6 +/- 4.4 IU/L). In kind it is organism-based. To be noted: in vivo, 336 h, dose 10 µg, time 14 day.
Data set [7] relates to Candida albicans. In words: Antifungal activity against fluconazole- resistant Candida albicans 17# assessed as fungal growth inhibition measured after 72 hrs in presence of naproxen by double dilution method. In kind it is functional.
A short description of data set [8]: Toxicity in mouse infected with Candida albicans assessed as spleen injury at 10 ug per 20 g, ip administered on day 2, 4, 6, 8, 10 and 12 and measured on day 14 by H and E staining based assay. In kind it is organism-based. To be noted: in vivo, 336 h, dose 10 µg, time 14 day.
A short description of data set [9]: Toxicity in mouse infected with Candida albicans assessed as kidney injury at 10 ug per 20 g, ip administered on day 2, 4, 6, 8, 10 and 12 and measured on day 14 by H and E staining based assay. The class given is organism-based. To be noted: in vivo, 336 h, dose 10 µg, time 14 day.
Data set [10] is filed under the species Mus musculus. As to the kind of experiment: Immunostimulatory activity in mouse infected with Candida albicans ATCC SC5314 assessed as increase in CD8+ expression level in spleen in presence of naproxen by immunohistochemical analysis. In kind it is functional, organism-based.
Data set [11] can be described thus: Toxicity in mouse infected with Candida albicans assessed as heart injury at 10 ug per 20 g, ip administered on day 2, 4, 6, 8, 10 and 12 and measured on day 14 by H and E staining based assay. The class given is organism-based. As to conditions: in vivo, 336 h, dose 10 µg, time 14 day.
Another data set concerns Pichia kudriavzevii. As to the kind of experiment: Antifungal activity against Candida krusei ATCC 6258 assessed as fungal growth inhibition measured after 72 hrs in presence of naproxen by double dilution method. The class given is functional.
The subject of a further data set is Aspergillus fumigatus. In words: Antifungal activity against Aspergillus fumigatus KM8001 assessed as fungal growth inhibition measured after 72 hrs in presence of naproxen by double dilution method. In kind it is functional.
In a further data set the test system is Candida tropicalis. In words: Antifungal activity against Candida tropicalis ATCC 1369 assessed as fungal growth inhibition measured after 72 hrs in presence of naproxen by double dilution method. In kind it is functional.
Data set [12] relates to Candida albicans. As to the kind of experiment: Antifungal activity against fluconazole- resistant Candida albicans 901 assessed as fungal growth inhibition measured after 72 hrs in presence of naproxen by double dilution method. The class given is functional.
Data set [13] can be described thus: Toxicity in mouse infected with Candida albicans assessed as liver injury at 10 ug per 20 g, ip administered on day 2, 4, 6, 8, 10 and 12 and measured on day 14 by H and E staining based assay. The class given is organism-based. As to conditions: in vivo, 336 h, dose 10 µg, time 14 day.
For data set [14], the species on record is Mus musculus. In words: Immunostimulatory activity in mouse infected with Candida albicans ATCC SC5314 assessed as increase in CD3+ expression level in spleen in presence of naproxen by immunohistochemical analysis. The class given is functional, organism-based.
The test system of data set [15] is Candida albicans. As to the kind of experiment: Antifungal actvity against Candida albicans ATCC SC5314 infected in mouse assessed as reduction in fungal infection at 10 ug per 20 g, ip administered on day 2, 4, 6, 8, 10 and 12 and measured on day 14 in presence of naproxen. In kind it is functional, organism-based. To be noted: dose 10.0 µg, time 14.0 day.
Data set [16] is filed under the species Mus musculus. In words: Antiinflammatory activity in mouse infected with Candida albicans ATCC SC5314 assessed as reduction in COX-2 expression in spleen in presence of naproxen by hematoxylin staining based inverted microscopic analysis. In kind it is functional.
For data set [17], the species on record is Mus musculus. In words: Antiinflammatory activity against mouse infected with Candida albicans ATCC SC5314 assessed as reduction in MMP-9 expression in spleen by Western blot analysis. In kind it is functional, organism-based.
For data set [18], the species on record is Mus musculus. As to the kind of experiment: Antiinflammatory activity in mouse infected with Candida albicans ATCC SC5314 assessed as reduction in COX-2 expression in spleen by hematoxylin staining based inverted microscopic analysis (reference value: 83.52 a.u.). In kind it is functional.
Data set [19] deals with Prostaglandin G/H synthase 1 (Homo sapiens, UniProt P23219). In words: Inhibition of COX-1 (unknown origin) using arachidonic acid as substrate preincubated for 10 mins followed by substrate addition and measured after 2 mins by immunoassay.
Prostaglandin G/H synthase 1, sequence (P23219 whole entry): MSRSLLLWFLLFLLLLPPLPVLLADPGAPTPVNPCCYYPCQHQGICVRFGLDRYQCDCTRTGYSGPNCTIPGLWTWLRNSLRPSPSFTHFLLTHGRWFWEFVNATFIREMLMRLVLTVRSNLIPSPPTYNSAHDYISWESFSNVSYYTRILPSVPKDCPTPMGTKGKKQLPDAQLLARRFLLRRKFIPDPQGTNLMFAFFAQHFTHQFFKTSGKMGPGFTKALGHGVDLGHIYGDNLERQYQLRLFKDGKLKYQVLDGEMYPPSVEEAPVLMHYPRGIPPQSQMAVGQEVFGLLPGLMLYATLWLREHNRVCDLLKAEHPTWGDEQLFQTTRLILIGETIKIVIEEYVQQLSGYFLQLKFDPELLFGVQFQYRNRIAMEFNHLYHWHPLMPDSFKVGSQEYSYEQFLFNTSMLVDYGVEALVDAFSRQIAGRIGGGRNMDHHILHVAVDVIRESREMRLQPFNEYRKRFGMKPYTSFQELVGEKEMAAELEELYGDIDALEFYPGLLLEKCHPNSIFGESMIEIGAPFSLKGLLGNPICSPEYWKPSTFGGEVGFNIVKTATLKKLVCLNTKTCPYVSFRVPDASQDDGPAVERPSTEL
For data set [20], the species on record is Mus musculus. As to the kind of experiment: Antiinflammatory activity in mouse infected with Candida albicans ATCC SC5314 assessed as reduction in MMP-9 expression in spleen by hematoxylin staining based inverted microscopic analysis (reference value: 36.74 a.u.). The class given is functional.
The target in data set [21] is T1, Prostaglandin G/H synthase 2 (Homo sapiens, UniProt P35354).
T1 sequence (P35354 whole entry): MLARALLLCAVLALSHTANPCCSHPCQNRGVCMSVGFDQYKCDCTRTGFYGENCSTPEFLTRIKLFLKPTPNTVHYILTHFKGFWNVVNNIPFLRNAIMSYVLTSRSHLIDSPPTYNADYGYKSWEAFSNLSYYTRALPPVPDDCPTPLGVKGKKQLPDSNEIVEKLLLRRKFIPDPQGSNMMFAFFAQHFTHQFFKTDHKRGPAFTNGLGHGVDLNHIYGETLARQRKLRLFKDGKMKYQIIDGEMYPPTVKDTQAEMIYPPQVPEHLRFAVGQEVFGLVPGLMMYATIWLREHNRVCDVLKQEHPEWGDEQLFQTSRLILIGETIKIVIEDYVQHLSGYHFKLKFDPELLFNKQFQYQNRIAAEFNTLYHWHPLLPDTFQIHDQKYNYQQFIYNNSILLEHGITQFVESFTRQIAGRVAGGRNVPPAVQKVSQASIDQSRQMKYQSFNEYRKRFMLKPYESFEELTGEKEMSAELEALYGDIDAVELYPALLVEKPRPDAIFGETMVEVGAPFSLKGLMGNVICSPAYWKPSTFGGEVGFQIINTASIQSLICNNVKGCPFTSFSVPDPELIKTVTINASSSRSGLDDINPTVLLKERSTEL
In words: Inhibition of COX-2 (unknown origin) using arachidonic acid as substrate preincubated for 10 mins followed by substrate addition and measured after 2 mins by immunoassay.

The subject of data set [22] is Candida albicans. As to the kind of experiment: Induction of morphological changes in Candida albicans ATCC SC5314 assessed as disappearance of nucleus measured for 48 to 72 hrs by transmission electron microscopic analysis. As to conditions: time 48-72 hrs. In kind it is functional, organism-based.
Data set [23] relates to Candida albicans. As to the kind of experiment: Induction of morphological changes in Candida albicans ATCC SC5314 assessed as cell leakage measured for 96 hrs by transmission electron microscopic analysis. In kind it is functional, organism-based.

Calls of active or inactive are those of the source. No cut-off for these calls is given here. Bounds are passed on as bounds.

For orientation: MIC50 means the lowest concentration that inhibits either 50% of growth or 50% of the strains tested, depending on the study. As for `OC(Cn1cncn1)(Cn1cncn1)c1ccc(F)cc1F` [FLUCONAZOLE], the MIC50 with Cryptococcus neoformans was determined as 0.25 µg/mL; in the data set with Candida albicans [1] it was 2 µg/mL; with Candida albicans [7], 4 µg/mL; in the data set on Pichia kudriavzevii, 1 µg/mL; in the data set on Aspergillus fumigatus, 4 µg/mL; with Candida tropicalis it was 0.5 µg/mL. Besides, the MIC50 in the data set with Candida albicans [12] was 4 µg/mL. For the same compound, the outcome in the data set with Candida albicans [2], in the data set on Candida albicans [5], in the data set listed under Mus musculus [10], in the data set filed under Mus musculus [14] and in the data set with Candida albicans [15] was Active. For the same compound, the Activity result is “Non-Toxic” in data set [3]; 39.43% in the data set listed under Mus musculus [4]; 42.6 IU/L in data set [6]; “Non-Toxic” in data set [8]; “Non-Toxic” in [9]; “Non-Toxic” in [11]. Further, the Activity entry is given as “Non-Toxic” in data set [13] and 55.7 a.u in the data set listed under Mus musculus [16].

As a reminder, the IC50 is the concentration that gives 50% inhibition. In the case of `CC(C)NC(=O)[C@@H](Cn1ccnc1)NC(=O)[C@@H](C)c1cccc(C(=O)c2ccccc2)c1`, the result in the data set on Candida albicans [5] and in the data set filed under Mus musculus [17] was Active. Moreover, the Activity in the data set listed under Mus musculus [18] is 20.15 a.u; in the data set filed under Mus musculus [20] it was 12.13 a.u. Further, the IC50 in data set [19] was above 50 µM; in data set [21], 3.02 µM.

Turning to `COc1ccc2cc([C@H](C)C(=O)NC(Cn3cncn3)C(=O)c3ccccc3)ccc2c1` (some centres undefined), the outcome in the data set on Candida albicans [2], in the data set with Candida albicans [22], in the data set filed under Mus musculus [17] and in the data set on Candida albicans [23] was Active. The Activity result is recorded as “Non-Toxic” in [3]; “Non-Toxic” in [8]; “Non-Toxic” in data set [9]; 20.15 a.u in the data set listed under Mus musculus [18]; “Non-Toxic” in data set [11]; 12.13 a.u in the data set filed under Mus musculus [20]. The Activity entry in data set [13] is “Non-Toxic”. Further, the figures for the IC50 in data set [19] and in data set [21] were above 50 µM and 1.96 µM, respectively.
